Experimental data published in patent US8552018B2, “Substituted tricyclic compounds as protein kinase inhibitors” (Arizona Board of Regents on behalf of the University of …, priority 2003, dated 2013).
Blank lines part the entries; values can stand above or below the compound they belong to.

What was measured:
mutant forms of c-Kit = test: Activity against mutant c-Kit (stated); format: biochemical
[1] = system: Akt phosphorylation in LNCaP prostate carcinoma cells; test: Immunoblot for phospho-Akt (S473); format: cell-based; settings: 48 hours
Procedure: LNCaP prostate carcinoma cells were treated with MP-470, in combinations with Tarceva® and Gleevec®, for 48 hours. Following incubation, cells were lysed and total protein subjected to immunoblot analysis for total Akt and phospho-Akt (S473).

[2] = system: Rad51 in SF-767 cancer cells; test: Western blotting for Rad51 after IR; format: cell-based; settings: SF-767 cells pretreated with MP470
[3] = system: SF-767 glioblastoma multiformes cells; test: MTS cell death assay; format: cell-based
Procedure: To evaluate the ability of MP470 to enhance clinical therapy we used MP470 in combination with ionizing radiation on culture cancer cells. SF-767 glioblastoma multiformes cells were treated with 1 μM MP470, 800c Gy IR, or a combination of both.

c-met = c-met (Homo sapiens, UniProt P08581); test: Activity against c-met (stated); format: biochemical
Chain of c-met (P08581 25-1390): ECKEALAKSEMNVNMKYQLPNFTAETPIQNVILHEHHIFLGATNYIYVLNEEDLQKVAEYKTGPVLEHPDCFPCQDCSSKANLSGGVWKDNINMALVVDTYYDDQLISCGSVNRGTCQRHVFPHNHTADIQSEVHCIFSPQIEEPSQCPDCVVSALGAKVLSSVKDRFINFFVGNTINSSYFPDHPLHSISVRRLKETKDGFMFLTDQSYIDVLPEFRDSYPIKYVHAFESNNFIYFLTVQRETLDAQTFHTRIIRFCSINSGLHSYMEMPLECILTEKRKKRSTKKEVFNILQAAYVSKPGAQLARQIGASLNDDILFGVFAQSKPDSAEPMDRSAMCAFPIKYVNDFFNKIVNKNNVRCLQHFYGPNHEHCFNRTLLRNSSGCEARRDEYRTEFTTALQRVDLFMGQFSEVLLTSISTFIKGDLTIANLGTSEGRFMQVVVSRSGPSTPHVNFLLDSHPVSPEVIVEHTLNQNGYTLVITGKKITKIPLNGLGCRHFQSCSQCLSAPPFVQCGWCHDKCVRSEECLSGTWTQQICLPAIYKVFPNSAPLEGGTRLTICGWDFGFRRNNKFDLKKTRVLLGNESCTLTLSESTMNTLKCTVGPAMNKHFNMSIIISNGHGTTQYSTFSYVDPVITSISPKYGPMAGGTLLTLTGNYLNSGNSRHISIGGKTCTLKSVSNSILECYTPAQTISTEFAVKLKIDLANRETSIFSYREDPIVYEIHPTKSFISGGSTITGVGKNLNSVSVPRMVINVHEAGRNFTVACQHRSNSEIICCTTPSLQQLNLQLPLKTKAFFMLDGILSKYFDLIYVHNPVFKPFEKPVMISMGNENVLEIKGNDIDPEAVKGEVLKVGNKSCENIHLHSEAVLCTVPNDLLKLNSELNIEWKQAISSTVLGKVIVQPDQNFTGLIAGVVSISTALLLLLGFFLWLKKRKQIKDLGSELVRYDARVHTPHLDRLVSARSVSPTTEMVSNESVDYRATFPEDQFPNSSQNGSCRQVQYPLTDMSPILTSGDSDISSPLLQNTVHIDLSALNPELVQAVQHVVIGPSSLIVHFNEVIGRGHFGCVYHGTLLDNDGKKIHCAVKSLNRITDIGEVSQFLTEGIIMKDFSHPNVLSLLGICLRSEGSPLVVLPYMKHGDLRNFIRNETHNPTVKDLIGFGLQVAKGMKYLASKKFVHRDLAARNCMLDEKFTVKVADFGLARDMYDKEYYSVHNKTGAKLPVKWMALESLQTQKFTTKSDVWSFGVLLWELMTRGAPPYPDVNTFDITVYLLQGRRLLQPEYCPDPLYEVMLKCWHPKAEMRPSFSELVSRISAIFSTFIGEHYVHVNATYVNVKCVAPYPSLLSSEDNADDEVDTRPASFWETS

LNCaP tumors = test: Xenograft study; format: in vivo, mice; settings: MP-470/Tarceva® in combination, 18 days treatment, FIG. 35
Procedure: A xenograft study was carried out in order to evaluate the combined effects of MP-470 (Compound III-1-3) and Tarceva® in vivo. LNCaP cells were injected into immunocompromised mice and allowed to develop into measurable tumors, at which point treatment was initiated. Mice were allocated to one of four groups and treated with vehicle, MP-470 (referred to in FIG. 35 as HPK56), Tarceva®, or MP-470/Tarceva® in combination, as indicated. […] The results of these studies are shown in graphical form in FIG. 35.

[4] = system: LNCaP prostate carcinoma cells; test: Apoptosis assays (morphology, PARP cleavage immunoblot); format: cell-based; settings: 48 hours
Procedure: Induction of apoptosis by MP-470 (Compound III-1-3) was further evaluated in LNCaP prostate carcinoma cells using three different assays. First, cells were treated with MP-470 at a variety of concentrations, with or without addition of Tarceva® (erlotinib) for 48 hours. Cells were then examined for the morphological characteristics of apoptosis (membrane blebbing, nuclear fragmentation, etc.) and scored according to a binary scale (apoptotic versus non-apoptotic).
As a more quantifiable means of determining apoptosis induction, cells were also lysed and total protein was used in an immunoblot assay for poly-[ADP ribose] polymerase (PARP) cleavage, a hallmark of apoptosis.

PDGFRa = PDGFRa (Homo sapiens, UniProt P16234); test: Autophosphorylation assay with γ-32P-ATP; format: biochemical; settings: FIG. 28B
Chain of PDGFRa (P16234 24-1089): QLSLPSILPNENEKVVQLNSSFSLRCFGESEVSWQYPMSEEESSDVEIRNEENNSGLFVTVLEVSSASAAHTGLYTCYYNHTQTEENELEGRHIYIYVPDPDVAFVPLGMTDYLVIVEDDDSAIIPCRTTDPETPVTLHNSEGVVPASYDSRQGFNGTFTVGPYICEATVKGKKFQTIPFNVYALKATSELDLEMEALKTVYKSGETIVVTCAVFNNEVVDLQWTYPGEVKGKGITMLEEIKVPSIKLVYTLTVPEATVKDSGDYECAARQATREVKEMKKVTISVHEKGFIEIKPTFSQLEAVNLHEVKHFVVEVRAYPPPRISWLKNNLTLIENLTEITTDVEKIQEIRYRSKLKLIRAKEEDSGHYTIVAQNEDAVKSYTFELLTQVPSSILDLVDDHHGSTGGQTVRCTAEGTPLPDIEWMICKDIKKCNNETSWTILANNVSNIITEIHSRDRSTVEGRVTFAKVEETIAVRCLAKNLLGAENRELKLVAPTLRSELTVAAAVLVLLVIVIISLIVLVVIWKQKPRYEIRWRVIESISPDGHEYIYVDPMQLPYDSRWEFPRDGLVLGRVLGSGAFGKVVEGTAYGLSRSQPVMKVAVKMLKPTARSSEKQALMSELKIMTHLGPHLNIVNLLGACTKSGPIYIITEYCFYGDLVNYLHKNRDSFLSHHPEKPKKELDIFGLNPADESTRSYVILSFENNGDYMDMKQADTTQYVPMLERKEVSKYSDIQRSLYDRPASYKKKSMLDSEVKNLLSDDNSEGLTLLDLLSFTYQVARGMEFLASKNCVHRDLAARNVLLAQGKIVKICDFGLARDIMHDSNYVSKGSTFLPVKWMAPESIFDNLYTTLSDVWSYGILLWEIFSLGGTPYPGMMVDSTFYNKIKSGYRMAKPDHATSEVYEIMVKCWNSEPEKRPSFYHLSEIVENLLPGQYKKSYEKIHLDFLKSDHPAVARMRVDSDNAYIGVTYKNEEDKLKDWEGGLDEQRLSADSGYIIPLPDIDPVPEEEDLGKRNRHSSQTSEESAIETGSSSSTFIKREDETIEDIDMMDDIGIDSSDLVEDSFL
Procedure: (§1) Enzymes were incubated with the appropriate concentration of inhibitor and radiolabeled γ-^32P-ATP. After 30 minutes, the reaction mixtures were electrophoresed on an acrylamide gel and autophosphorylation, quantitated by the amount of radioactivity incorporated into the enzyme, was assayed.

c-Kit = c-Kit (Homo sapiens, UniProt P10721); test: Autophosphorylation assay with γ-32P-ATP; format: biochemical; settings: FIG. 28A
Chain of c-Kit (P10721 26-976): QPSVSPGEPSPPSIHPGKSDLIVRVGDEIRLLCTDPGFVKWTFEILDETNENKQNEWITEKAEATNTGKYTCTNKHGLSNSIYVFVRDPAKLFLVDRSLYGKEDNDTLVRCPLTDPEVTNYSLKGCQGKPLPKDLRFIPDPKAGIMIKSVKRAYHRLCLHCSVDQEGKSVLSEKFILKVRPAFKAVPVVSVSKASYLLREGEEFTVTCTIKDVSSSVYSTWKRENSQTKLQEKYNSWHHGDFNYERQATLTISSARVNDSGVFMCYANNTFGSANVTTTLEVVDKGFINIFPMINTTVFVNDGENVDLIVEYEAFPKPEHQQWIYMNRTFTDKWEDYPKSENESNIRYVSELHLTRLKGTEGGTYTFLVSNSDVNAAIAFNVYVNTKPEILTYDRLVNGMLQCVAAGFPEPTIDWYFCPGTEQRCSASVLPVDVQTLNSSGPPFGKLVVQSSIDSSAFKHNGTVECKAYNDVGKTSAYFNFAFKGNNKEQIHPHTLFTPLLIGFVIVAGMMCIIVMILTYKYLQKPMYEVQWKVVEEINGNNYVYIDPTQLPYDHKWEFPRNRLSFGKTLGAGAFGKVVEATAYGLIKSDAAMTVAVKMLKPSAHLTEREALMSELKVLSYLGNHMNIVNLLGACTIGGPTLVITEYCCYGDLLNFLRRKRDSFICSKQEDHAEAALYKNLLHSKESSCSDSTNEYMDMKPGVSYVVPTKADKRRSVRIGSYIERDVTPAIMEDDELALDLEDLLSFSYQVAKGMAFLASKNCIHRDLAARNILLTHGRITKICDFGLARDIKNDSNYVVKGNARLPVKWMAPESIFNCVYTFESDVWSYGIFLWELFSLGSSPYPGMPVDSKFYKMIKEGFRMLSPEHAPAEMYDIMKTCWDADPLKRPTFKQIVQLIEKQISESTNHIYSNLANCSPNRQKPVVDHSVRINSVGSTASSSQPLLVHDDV
Procedure: as §1

[5] = system: c-Met autophosphorylation in NIH 3T3 cells; test: Immunoblot for phospho-Met; format: cell-based
Procedure: MP-470 (Compound III-1-3) has inhibitory effects on a number of receptor tyrosine kinases. In order to evaluate these effects at the cellular level, immunoblot analysis was performed on lysates from cells treated with MP470, with or without the addition of the EGFR inhibitor Tarceva®. Lysates were assayed for general tyrosine kinase activity, as well as the specific phosphorylation of c-Met and Akt. Briefly, NIH 3T3 cells were pretreated with drugs as indicated for 4 hours, then treated with pervanadate for a further 30 minutes. Immunoblot detection was carried out with antibodies for phosphotyrosine, phospho-Met and phospho-Akt (S473), as well as total c-Met and Akt. Beta-actin was used as a loading control.

aurora-2 kinase = molecular target: T1, aurora-2 kinase (Homo sapiens, UniProt O14965); test: Protein kinase inhibitory activity (Example 33, Kinase-Glo); format: biochemical; settings: FIG. 27
T1 construct: purchased Imgenex, San Diego, Calif; host or cells: sf9 cells
T1 sequence (O14965 1-403): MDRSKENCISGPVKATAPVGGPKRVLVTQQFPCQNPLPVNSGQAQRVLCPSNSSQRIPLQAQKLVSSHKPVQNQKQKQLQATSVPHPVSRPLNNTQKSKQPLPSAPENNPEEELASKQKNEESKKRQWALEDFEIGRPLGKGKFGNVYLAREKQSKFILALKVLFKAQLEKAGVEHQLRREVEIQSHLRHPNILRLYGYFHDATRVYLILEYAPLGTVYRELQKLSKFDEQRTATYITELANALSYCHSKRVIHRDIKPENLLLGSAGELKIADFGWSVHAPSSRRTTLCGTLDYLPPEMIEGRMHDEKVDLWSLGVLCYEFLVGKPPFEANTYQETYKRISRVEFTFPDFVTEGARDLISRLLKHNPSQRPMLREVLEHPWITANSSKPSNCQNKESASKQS
Procedure: After incubation, 50 μl of Kinase-Glo® (Promega, Inc., Madison, Wis.) solution was added to each reaction mixture and allowed to equilibrate for 10 minutes at room temperature. Kinase-Glo solution contains luciferase enzyme and luciferin, which react with ATP to produce light. Kinase activity is determined by quantifying the amount of ATP remaining in solution following the kinase reaction by measuring the relative light units (RLU) produced by luciferase using a luminometer (Thermo Electron Corporation, Vantaa, Finland).

Aurora-A = Aurora-A (Homo sapiens, UniProt O14965); settings: 0.1 μM ATP, 30 μM Kemptide
Procedure: [drawing 74] enzyme assays were performed using the Kinase-Glo™ Luminescent Kinase Assay from Promega Corporation (Madison, Wis.). The following conditions were used: [table] Enzymatic reactions were allowed to progress for 2 hours at 30° C., then assayed for kinase activity according to manufacturer protocol.

MKK6 = MKK6 (Homo sapiens, UniProt P52564); test: Kinase-Glo Luminescent Kinase Assay (Examples 27, 33); format: biochemical
Chain of MKK6 (P52564 whole entry, species assumed): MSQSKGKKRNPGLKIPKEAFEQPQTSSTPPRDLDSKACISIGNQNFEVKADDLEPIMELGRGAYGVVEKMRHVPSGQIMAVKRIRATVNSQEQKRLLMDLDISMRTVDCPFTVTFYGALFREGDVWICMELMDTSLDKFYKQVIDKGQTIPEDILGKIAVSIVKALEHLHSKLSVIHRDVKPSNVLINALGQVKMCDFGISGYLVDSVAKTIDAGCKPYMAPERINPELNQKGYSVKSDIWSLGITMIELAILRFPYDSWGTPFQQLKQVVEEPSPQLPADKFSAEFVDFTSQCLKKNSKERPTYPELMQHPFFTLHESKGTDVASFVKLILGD
Procedure: (§2) The following conditions were used:
(§3) The protein serine-threonine kinases cAMP PK, MKK6 and Cdk1 were tested alongside Aurora-2 kinase to evaluate the activity of compound (II-2-6) against these protein kinases. Briefly, in this assay kinase activity is determined by quantifying the amount of ATP remaining in solution following the kinase reaction by measuring the relative light units (RLU) produced by luciferase using a luminometer. Percent activity was determined for individual compounds by comparing luminometer readings of drug-treated reactions to controls containing no drug (RLUNo Inhib) and no Aurora-2 enzyme (RLUNo Kinase) in the following equation: […]

cAMP-PK = cAMP-PK (Homo sapiens, UniProt P17612); test: as above; format: biochemical
Procedure: as §2, §3

CDK1 = CDK1 (Homo sapiens, UniProt P06493); test: as above; format: biochemical
Chain of CDK1 (P06493 whole entry, species assumed): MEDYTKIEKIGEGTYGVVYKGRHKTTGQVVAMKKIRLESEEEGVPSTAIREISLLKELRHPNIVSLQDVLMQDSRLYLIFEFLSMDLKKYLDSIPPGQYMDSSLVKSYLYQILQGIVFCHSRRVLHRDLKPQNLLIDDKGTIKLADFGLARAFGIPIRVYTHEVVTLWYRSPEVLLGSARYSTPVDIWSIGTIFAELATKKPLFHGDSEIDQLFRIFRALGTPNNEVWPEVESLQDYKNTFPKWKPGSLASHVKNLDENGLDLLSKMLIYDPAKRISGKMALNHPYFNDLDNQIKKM
Chain of CDK1 (P14635 whole entry partner, species assumed): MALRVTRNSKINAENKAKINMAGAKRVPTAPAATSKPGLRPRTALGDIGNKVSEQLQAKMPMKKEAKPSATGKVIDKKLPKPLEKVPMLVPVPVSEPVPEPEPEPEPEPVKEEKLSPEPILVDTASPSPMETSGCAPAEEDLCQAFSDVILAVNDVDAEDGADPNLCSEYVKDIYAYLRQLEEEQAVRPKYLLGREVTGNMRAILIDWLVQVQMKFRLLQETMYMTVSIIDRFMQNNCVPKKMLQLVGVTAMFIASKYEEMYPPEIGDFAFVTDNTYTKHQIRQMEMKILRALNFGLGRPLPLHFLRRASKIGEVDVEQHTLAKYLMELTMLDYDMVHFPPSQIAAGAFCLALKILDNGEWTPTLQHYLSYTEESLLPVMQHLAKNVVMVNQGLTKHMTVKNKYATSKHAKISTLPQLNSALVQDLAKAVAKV
Procedure: as §2, §3

Compound: S=C(NCc1ccc2c(c1)OCO2)N1CCN(c2ncnc3c2oc2ccccc23)CC1 [HPK56, 4-Benzo[4,5]furo[3,2-d]pyrimidin-4-yl-piperazine-1-carbothioic acid (benzo[1,3]dioxol-5-ylmethyl)-amide]
activity against mutant forms of c-Kit (in words) (mutant forms of c-Kit): low nanomolar
reduction of phosphorylation of Akt ([1]; MP-470 and Tarceva® in combination): enhanced
phosphorylation of Akt ([1]; agent alone): reduced in a dose-dependent manner
Rad51 protein levels after exposure to IR [2]: remained low and near control level
cell death (MTS) ([3]; SF-767, 1 μM MP470 alone): induced cell death
increase of cell death over either agent alone ([3]; SF-767, 1 μM MP470 in combination with 800c Gy IR): more than 2 fold
activity against c-met (in words) (c-met): low micromolar
tumor growth (LNCaP tumors): slowed tumor growth to nearly zero
apoptosis induction ([4]; MP-470 alone): dose-dependent increase in apoptosis
apoptosis induction ([4]; MP-470 in the presence of erlotinib): enhanced
inhibition of PDGFRa autophosphorylation (in words) (PDGFRa): dose-dependent
inhibition of c-Kit autophosphorylation (in words) (c-Kit): dose-dependent
activating autophosphorylation of c-Met ([5]; NIH 3T3, 4 hours, agent alone): reduced
activating autophosphorylation of c-Met ([5]; NIH 3T3, MP-470 in combination with Tarceva®): reduced

kinase inhibitory activity (in words) (aurora-2 kinase): highest activity
IC50 (Aurora-A): 0.9 µM
IC50 (MKK6; MKK6, 0.1 μM ATP, 30 μM Kemptide): 6.2 µM
kinase inhibitory activity (in words) (MKK6; MKK6, FIG. 27): inhibitory activity
kinase inhibitory activity (in words) (cAMP-PK; cAMP PK, FIG. 27): inhibitory activity
IC50 (cAMP-PK; cAMP-PK, 0.1 μM ATP, 30 μM Kemptide): > 100 µM
IC50 (CDK1; CDK1, 0.1 μM ATP, 30 μM Kemptide): 22.3 µM
kinase inhibitory activity (in words) (CDK1; Cdk1, FIG. 27): inhibitory activity
Compound: COc1cc2[nH]c3ncnc(N4CCN(C(=S)Nc5ccc(S(=O)(=O)Nc6ncccn6)cc5)CC4)c3c2cc1OC [HPK62, 4-(6,7-Dimethoxy-9H-1,3,9-triaza-fluoren-4-yl)-piperazine-1-carbothioic acid [4-(pyrimidin-2-ylsulfamoyl)-phenyl]-amide]
